# Assay results: patent US8834862B2, “Methods, compositions and devices utilizing stinging cells/capsules for conditioning a tissue prior to delivery of an active agent” (NanoCyte Inc., priority 2005, dated 2014)
# Tested on: blood glucose
# Assay: Insulin delivery by aiptasia stinging capsule gel, blood glucose in nude mice
# Assay type: in vivo
# Details: topical aiptasia stinging capsule gel plus Humolin, blood glucose at 0, 30, 60 and 90 minutes after gel activation, FIG. 3
# Method: The potential of the stinging capsule patch to deliver an agent (insulin) into the blood stream was tested with aiptasia capsules.
# Materials—Commercial Insulin—Humolin of EliLilly was tested. Unless otherwise noted, all chemicals were purchased from Sigma (Aldrich).
# Animals—6-9 week old nude mice each weighing 20-30 gr were used.
# Insulin Delivery—Mice were topically applied with the aiptasia stinging capsule gel and Humolin. A few microlitres of blood were drawn from the tail tip prior to insulin application (time 0) and thirty minutes, sixty minutes and ninety minutes following gel activation. Blood glucose concentration was measured using a human glucometer.
# In parallel, and as a positive control, mice were subcutaneously injected with Humolin.
substance,measurement,value
insulin,insulin delivery / blood glucose regulation compared with subcutaneous injection,in a similar manner as subcutaneous injection
